# Values of other authors as cited in paper PMC12866175 (European journal of nuclear medicine and molecular imaging, 2021).
# Columns and labels:
# [1] = tested on: NETs; details: cited from earlier work
# [2] = tested on: tumor; details: human, in vivo; cited from earlier work
substance,measurement,setting,value
[^177Lu]Lu-DOTA-TATE,patients achieving stable disease,[1],26–55%
same,patients treatment refractory,[1],18–32%
same,time after starting treatment within which half progress,[1],2 to 3 years
same,tumor residence time compared with [^177Lu]Lu-DOTATOC,[2],greater tumor residence time
